≈ marks a conversion by molar mass, not a printed value.
Key:
Format in all cases: functional
Aspergillus fumigatus [1] = assay: Antifungal activity against Aspergillus fumigatus at 100 ug/disc after 48 hr by paper disk diffusion method; conditions: read-out: IZ
Staphylococcus aureus [2] = assay: Antibacterial activity against Staphylococcus aureus after 24 hr by agar streak dilution method
Bacillus subtilis [3] = assay: Antibacterial activity against Bacillus subtilis after 24 hr by agar streak dilution method
Aspergillus niger [4] = assay: Antifungal activity against Aspergillus niger after 48 hr by agar streak dilution method
Proteus vulgaris [5] = assay: Antibacterial activity against Proteus vulgaris after 24 hr by agar streak dilution method
Escherichia coli [6] = assay: Antibacterial activity against Escherichia coli at 100 ug/disk after 24 hr by paper disk diffusion method; conditions: read-out: IZ
Candida albicans [7] = assay: Antifungal activity against Candida albicans after 48 hr by agar streak dilution method
Escherichia coli [8] = assay: Antibacterial activity against Escherichia coli after 24 hr by agar streak dilution method
Aspergillus clavatus [9] = assay: Antifungal activity against Aspergillus clavatus after 48 hr by agar streak dilution method
Bacillus subtilis [10] = assay: Antibacterial activity against Bacillus subtilis at 100 ug/disk after 24 hr by paper disk diffusion method; conditions: read-out: IZ
Pseudomonas aeruginosa [11] = assay: Antibacterial activity against Pseudomonas aeruginosa after 24 hr by agar streak dilution method
Klebsiella pneumoniae [12] = assay: Antibacterial activity against Klebsiella pneumoniae after 24 hr by agar streak dilution method
Salmonella typhi [13] = assay: Antibacterial activity against Salmonella enterica subsp. enterica serovar Typhi after 24 hr by agar streak dilution method
Proteus vulgaris [14] = assay: Antibacterial activity against Proteus vulgaris at 100 ug/disk after 24 hr by paper disk diffusion method; conditions: read-out: IZ
Candida albicans [15] = assay: Antifungal activity against Candida albicans at 100 ug/disk after 48 hr by paper disk diffusion method; conditions: read-out: IZ
Aspergillus clavatus [16] = assay: Antifungal activity against Aspergillus clavatus at 100 ug/disc after 48 hr by paper disk diffusion method; conditions: read-out: IZ
Aspergillus fumigatus [17] = assay: Antifungal activity against Aspergillus fumigatus after 48 hr by agar streak dilution method
Salmonella typhi [18] = assay: Antibacterial activity against Salmonella enterica subsp. enterica serovar Typhi at 100 ug/disk after 24 hr by paper disk diffusion method; conditions: read-out: IZ
Aspergillus niger [19] = assay: Antifungal activity against Aspergillus niger at 100 ug/disk after 48 hr by paper disk diffusion method; conditions: read-out: IZ
Shigella flexneri [20] = assay: Antibacterial activity against Shigella flexneri at 100 ug/disc after 24 hr by paper disk diffusion method; conditions: read-out: IZ
Staphylococcus aureus [21] = assay: Antibacterial activity against Staphylococcus aureus at 100 ug/disc after 24 hr by paper disk diffusion method; conditions: read-out: IZ
Klebsiella pneumoniae [22] = assay: Antibacterial activity against Klebsiella pneumoniae at 100 ug/disk after 24 hr by paper disk diffusion method; conditions: read-out: IZ
Pseudomonas aeruginosa [23] = assay: Antibacterial activity against Pseudomonas aeruginosa at 100 ug/disk after 24 hr by paper disk diffusion method; conditions: read-out: IZ
Shigella flexneri [24] = assay: Antibacterial activity against Shigella flexneri after 24 hr by agar streak dilution method

| Structure (SMILES) | zone of inhibition at 100 µg/disc (Aspergillus fumigatus [1]) | MIC (Staphylococcus aureus [2]) | MIC (Bacillus subtilis [3]) | MIC (Aspergillus niger [4]) | MIC (Proteus vulgaris [5]) | zone of inhibition at 100 µg/disc (Escherichia coli [6]) | MIC (Candida albicans [7]) | MIC (Escherichia coli [8]) | MIC (Aspergillus clavatus [9]) | zone of inhibition at 100 µg/disc (Bacillus subtilis [10]) | MIC (Pseudomonas aeruginosa [11]) | MIC (Klebsiella pneumoniae [12]) | MIC (Salmonella typhi [13]) | zone of inhibition at 100 µg/disc (Proteus vulgaris [14]) | zone of inhibition at 100 µg/disc (Candida albicans [15]) | zone of inhibition at 100 µg/disc (Aspergillus clavatus [16]) | MIC (Aspergillus fumigatus [17]) | zone of inhibition at 100 µg/disc (Salmonella typhi [18]) | zone of inhibition at 100 µg/disc (Aspergillus niger [19]) | zone of inhibition at 100 µg/disc (Shigella flexneri [20]) | other results |
| --- | --- | --- | --- | --- | --- | --- | --- | --- | --- | --- | --- | --- | --- | --- | --- | --- | --- | --- | --- | --- | --- |
| Cc1cc(=O)oc2cc(Oc3nc(Nc4ccc(N5C(=O)CSC5c5ccccc5Br)cc4)nc(N(C)C)n3)ccc12 (configuration not stated) | 23 mm | 50 µg/mL (≈ 77.5 µM) | 50 µg/mL (≈ 77.5 µM) | 100 µg/mL (≈ 155 µM) | 50 µg/mL (≈ 77.5 µM) | 17 mm | 25 µg/mL (≈ 38.7 µM) | 100 µg/mL (≈ 155 µM) | 50 µg/mL (≈ 77.5 µM) | 20 mm | 50 µg/mL (≈ 77.5 µM) | 100 µg/mL (≈ 155 µM) | 100 µg/mL (≈ 155 µM) | 16 mm | 21 mm | 20 mm | 25 µg/mL (≈ 38.7 µM) | 12 mm | 19 mm | 10 mm | zone of inhibition at 100 µg/disc (Staphylococcus aureus [21]): 17 mm; zone of inhibition at 100 µg/disc (Klebsiella pneumoniae [22]): 13 mm; zone of inhibition at 100 µg/disc (Pseudomonas aeruginosa [23]): 20 mm; MIC (Shigella flexneri [24]): 100 µg/mL (≈ 155 µM) |
| Cc1cc(=O)oc2cc(Oc3nc(Nc4ccc(N5C(=O)CSC5c5cccc(F)c5)cc4)nc(N(C)C)n3)ccc12 (configuration not stated) | 17 mm | 50 µg/mL (≈ 85.5 µM) | 50 µg/mL (≈ 85.5 µM) | 25 µg/mL (≈ 42.8 µM) | 50 µg/mL (≈ 85.5 µM) | 23 mm | 50 µg/mL (≈ 85.5 µM) | 25 µg/mL (≈ 42.8 µM) | 25 µg/mL (≈ 42.8 µM) | 19 mm | 50 µg/mL (≈ 85.5 µM) | 50 µg/mL (≈ 85.5 µM) | 25 µg/mL (≈ 42.8 µM) | 17 mm | 18 mm | 21 mm | 50 µg/mL (≈ 85.5 µM) | 20 mm | 20 mm | 22 mm | zone of inhibition at 100 µg/disc (Staphylococcus aureus [21]): 17 mm; zone of inhibition at 100 µg/disc (Klebsiella pneumoniae [22]): 18 mm; zone of inhibition at 100 µg/disc (Pseudomonas aeruginosa [23]): 19 mm; MIC (Shigella flexneri [24]): 25 µg/mL (≈ 42.8 µM) |
| Cc1cc(=O)oc2cc(Oc3nc(Nc4ccc(/N=C/c5ccc(F)cc5)cc4)nc(N(C)C)n3)ccc12 | 14 mm | 25 µg/mL (≈ 49 µM) | 50 µg/mL (≈ 97.9 µM) | 50 µg/mL (≈ 97.9 µM) | 50 µg/mL (≈ 97.9 µM) | 16 mm | 25 µg/mL (≈ 49 µM) | 50 µg/mL (≈ 97.9 µM) | 50 µg/mL (≈ 97.9 µM) | 18 mm | 50 µg/mL (≈ 97.9 µM) | 100 µg/mL (≈ 196 µM) | 50 µg/mL (≈ 97.9 µM) | 17 mm | 21 mm | 19 mm | 100 µg/mL (≈ 196 µM) | 15 mm | 20 mm | 14 mm | zone of inhibition at 100 µg/disc (Staphylococcus aureus [21]): 20 mm; zone of inhibition at 100 µg/disc (Klebsiella pneumoniae [22]): < 10 mm; zone of inhibition at 100 µg/disc (Pseudomonas aeruginosa [23]): 20 mm; MIC (Shigella flexneri [24]): 100 µg/mL (≈ 196 µM) |
| Cc1cc(=O)oc2cc(Oc3nc(Nc4ccc(N5C(=O)CSC5c5ccc(O)cc5)cc4)nc(N(C)C)n3)ccc12 (configuration not stated) | 21 mm | 12.5 µg/mL (≈ 21.5 µM) | 12.5 µg/mL (≈ 21.5 µM) | 12.5 µg/mL (≈ 21.5 µM) | 12.5 µg/mL (≈ 21.5 µM) | 24 mm | 50 µg/mL (≈ 85.8 µM) | 12.5 µg/mL (≈ 21.5 µM) | 50 µg/mL (≈ 85.8 µM) | 20 mm | 25 µg/mL (≈ 42.9 µM) | 100 µg/mL (≈ 172 µM) | 12.5 µg/mL (≈ 21.5 µM) | 21 mm | 19 mm | 18 mm | 12.5 µg/mL (≈ 21.5 µM) | 23 mm | 24 mm | 19 mm | zone of inhibition at 100 µg/disc (Staphylococcus aureus [21]): 22 mm; zone of inhibition at 100 µg/disc (Klebsiella pneumoniae [22]): 15 mm; zone of inhibition at 100 µg/disc (Pseudomonas aeruginosa [23]): 21 mm; MIC (Shigella flexneri [24]): 50 µg/mL (≈ 85.8 µM) |
| COc1ccc(C2SC(CN3CCN(c4ccccn4)CC3)C(=O)N2c2ccc(Nc3nc(Oc4ccc5c(C)cc(=O)oc5c4)nc(N(C)C)n3)cc2)cc1OC (configuration not stated) | 13 mm | 25 µg/mL (≈ 31.2 µM) | 50 µg/mL (≈ 62.3 µM) | 50 µg/mL (≈ 62.3 µM) | 100 µg/mL (≈ 125 µM) | 13 mm | 100 µg/mL (≈ 125 µM) | 100 µg/mL (≈ 125 µM) | 50 µg/mL (≈ 62.3 µM) | 17 mm | 100 µg/mL (≈ 125 µM) | 100 µg/mL (≈ 125 µM) | 50 µg/mL (≈ 62.3 µM) | 15 mm | < 10 mm | 17 mm | 100 µg/mL (≈ 125 µM) | 17 mm | 19 mm | 19 mm | zone of inhibition at 100 µg/disc (Staphylococcus aureus [21]): 20 mm; zone of inhibition at 100 µg/disc (Klebsiella pneumoniae [22]): 11 mm; zone of inhibition at 100 µg/disc (Pseudomonas aeruginosa [23]): 15 mm; MIC (Shigella flexneri [24]): 50 µg/mL (≈ 62.3 µM) |
| Cc1cc(=O)oc2cc(Oc3nc(Nc4ccc(N5C(=O)C(CN6CCN(c7ccccn7)CC6)SC5c5ccc(O)cc5O)cc4)nc(N(C)C)n3)ccc12 (configuration not stated) | 23 mm | 6.25 µg/mL (≈ 8.08 µM) | 12.5 µg/mL (≈ 16.2 µM) | 25 µg/mL (≈ 32.3 µM) | 25 µg/mL (≈ 32.3 µM) | 23 mm | 6.25 µg/mL (≈ 8.08 µM) | 12.5 µg/mL (≈ 16.2 µM) | 12.5 µg/mL (≈ 16.2 µM) | 23 mm | 25 µg/mL (≈ 32.3 µM) | 6.25 µg/mL (≈ 8.08 µM) | 6.25 µg/mL (≈ 8.08 µM) | 22 mm | 27 mm | 22 mm | 12.5 µg/mL (≈ 16.2 µM) | 28 mm | 21 mm | 26 mm | zone of inhibition at 100 µg/disc (Staphylococcus aureus [21]): 26 mm; zone of inhibition at 100 µg/disc (Klebsiella pneumoniae [22]): 27 mm; zone of inhibition at 100 µg/disc (Pseudomonas aeruginosa [23]): 20 mm; MIC (Shigella flexneri [24]): 6.25 µg/mL (≈ 8.08 µM) |
| Cc1cc(=O)oc2cc(Oc3nc(Nc4ccc(N5C(=O)CSC5c5ccc([N+](=O)[O-])cc5)cc4)nc(N(C)C)n3)ccc12 (configuration not stated) | 13 mm | 100 µg/mL (≈ 163 µM) | 100 µg/mL (≈ 163 µM) | 100 µg/mL (≈ 163 µM) | 100 µg/mL (≈ 163 µM) | 13 mm | 100 µg/mL (≈ 163 µM) | 100 µg/mL (≈ 163 µM) | 100 µg/mL (≈ 163 µM) | 11 mm | 100 µg/mL (≈ 163 µM) | 100 µg/mL (≈ 163 µM) | 100 µg/mL (≈ 163 µM) | < 10 mm | < 10 mm | 17 mm | 100 µg/mL (≈ 163 µM) | 16 mm | 12 mm | 11 mm | zone of inhibition at 100 µg/disc (Staphylococcus aureus [21]): 13 mm; zone of inhibition at 100 µg/disc (Klebsiella pneumoniae [22]): 12 mm; zone of inhibition at 100 µg/disc (Pseudomonas aeruginosa [23]): 11 mm; MIC (Shigella flexneri [24]): 100 µg/mL (≈ 163 µM) |
| Cc1cc(=O)oc2cc(Oc3nc(Nc4ccc(/N=C/c5ccc(O)cc5)cc4)nc(N(C)C)n3)ccc12 | 18 mm | 25 µg/mL (≈ 49.2 µM) | 50 µg/mL (≈ 98.3 µM) | 50 µg/mL (≈ 98.3 µM) | 50 µg/mL (≈ 98.3 µM) | 20 mm | 100 µg/mL (≈ 197 µM) | 25 µg/mL (≈ 49.2 µM) | 100 µg/mL (≈ 197 µM) | 18 mm | 50 µg/mL (≈ 98.3 µM) | 100 µg/mL (≈ 197 µM) | 50 µg/mL (≈ 98.3 µM) | 19 mm | 16 mm | 14 mm | 50 µg/mL (≈ 98.3 µM) | 19 mm | 20 mm | 17 mm | zone of inhibition at 100 µg/disc (Staphylococcus aureus [21]): 20 mm; zone of inhibition at 100 µg/disc (Klebsiella pneumoniae [22]): 11 mm; zone of inhibition at 100 µg/disc (Pseudomonas aeruginosa [23]): 18 mm; MIC (Shigella flexneri [24]): 100 µg/mL (≈ 197 µM) |

— ChEMBL document CHEMBL3046897, “Synthesis of 3-{4-[4-dimethylamino-6-(4-methyl-2-oxo-2H-chromen-7-yloxy)-[1,3,5]triazin-2-ylamino]-phenyl}-2-phenyl-5-(4-pyridin-2-yl-piperazin-1-ylmethyl)-thiazolidin-4-one and their biological evaluation” (2012)
